Reference: US20140094424A1, “MICROBICIDAL COMPOSITIONS AND METHODS OF PRODUCTION USE THEREOF” (priority 2011, published 2014)

Legend:
[1] = tested on: Penicillium notatum-KMO (R); test: MBC (minimum bactericidal concentration) test in Wash NEXT reagent; format: cell-based; set-up: key to MBC test growth score: number = actual colony count; + full mat, − no growth
Method: (§1) The stock organisms were thawed and subbed prior to beginning the MBC test. Molds were subbed to SDA plates one week before, and the bacteria were subbed to TAT agar plates 24 hours prior to the start of the test. All plates were incubated at 32 degrees C.
(§2) For the molds, each organism was inoculated into 40 ml sterile saline in a centrifuge tube to create a density of MacFarland #5. Two serial dilutions of 1:100 were then made, resulting in 10^−2 and 10^−4 concentrations. Each dilution was vortexed before it was sampled, and sterile Eppendorf pipette tips were used to make each transfer. The 10^−4 dilution was spiral plated to yield the initial inoculum concentration.
(§3) MBC trays were set up with the prepared test reagent. Using a Matrix pipettor, 100 μl aliquots of reagent were distributed into the wells, diluting the amount of preservative from 100% to 10% increments, using unpreserved reagent as the diluent. In one row, 100% non-preserved reagent acted as a positive control and served as a benchmark for a full mat of growth. In well #12H, 100 μl unpreserved reagent was pipetted, and this well was not inoculated with organisms, as it served as the negative control. Once all of the trays were prepared, the prepared bacteria/mold suspensions were poured into the MBC inoculating trays. These were placed onto the reagent trays, and 0.01 ml inoculum was introduced into the 100 μl of reagent in each well.
(§4) This was done by dipping a sterile cotton swab into each well, and absorbing all of the liquid in the well. The swab was rolled onto a TAT agar plate ensuring that the entire swab touches the agar. Plates ware incubated at 32 degrees C. for 48 hours to 7 days, depending on the organism. Observations for growth were performed by a scoring matrix using + for a full mat, +/− for some growth, a numerical value for an actual colony count, and—for no growth.
(§5) Below are tables that contain the data obtained in Example 1. The MBC test is scored by (+) indicating a full grown mat of organisms, equivalent to the organisms in the unpreserved reagent. (+/−) indicates there is some kill evident disturbing that mat or bringing the quantities down to an almost countable level. An actual number is the actual number of colonies growing at that concentration of preservative. (−) indicates no growth found. The MBC trays were stored at room temperature for the entire test.
(§6) The materials and methods and analysis of the MBC test were the same as in Example 1.

[2] = tested on: Aspergillus glaucus- DMO (Q); test: as above; format: cell-based; conditions: at 14 days
Method: as §1, §2, §3, §4, §5, §6

Cc1cc(NS(=O)(=O)c2ccc(N)cc2)no1 [Sulfamethoxazole, sulfamethoxazole]
MBC test growth score ([1]; 10% preservative, 8 hour): +
MBC test growth score ([1]; 10% preservative, 24 hour): +
MBC test growth score ([1]; 10% preservative, 48 hour): +/−
MBC test growth score ([1]; 10% preservative, 72 hour): +
MBC test growth score ([1]; 10% preservative, 7 day): +
MBC test growth score ([1]; 10% preservative, 14 day): +/−
MBC test growth score ([1]; 20% preservative, 8 hour): +
MBC test growth score ([1]; 20% preservative, 24 hour): +
MBC test growth score ([1]; 20% preservative, 48 hour): +/−
MBC test growth score ([1]; 20% preservative, 72 hour): +/−
MBC test growth score ([1]; 20% preservative, 7 day): +/−
MBC test growth score ([1]; 20% preservative, 14 day): 31
MBC test growth score ([1]; 30% preservative, 8 hour): +
MBC test growth score ([1]; 30% preservative, 24 hour): +
MBC test growth score ([1]; 30% preservative, 48 hour): +/−
MBC test growth score ([1]; 30% preservative, 72 hour): +/−
MBC test growth score ([1]; 30% preservative, 7 day): +/−
MBC test growth score ([1]; 30% preservative, 14 day): 28
MBC test growth score ([1]; 40% preservative, 8 hour): +
MBC test growth score ([1]; 40% preservative, 24 hour): +
MBC test growth score ([1]; 40% preservative, 48 hour): +/−
MBC test growth score ([1]; 40% preservative, 72 hour): +/−
MBC test growth score ([1]; 40% preservative, 7 day): +/−
MBC test growth score ([1]; 40% preservative, 14 day): 25
MBC test growth score ([1]; 50% preservative, 8 hour): +
MBC test growth score ([1]; 50% preservative, 24 hour): +
MBC test growth score ([1]; 50% preservative, 48 hour): +/−
MBC test growth score ([1]; 50% preservative, 72 hour): +/−
MBC test growth score ([1]; 50% preservative, 7 day): +/−
MBC test growth score ([1]; 50% preservative, 14 day): 18
MBC test growth score ([1]; 60% preservative, 8 hour): +
MBC test growth score ([1]; 60% preservative, 24 hour): +
MBC test growth score ([1]; 60% preservative, 48 hour): +/−
MBC test growth score ([1]; 60% preservative, 72 hour): +/−
MBC test growth score ([1]; 60% preservative, 7 day): +/−
MBC test growth score ([1]; 70% preservative, 8 hour): +
MBC test growth score ([1]; 70% preservative, 24 hour): +
MBC test growth score ([1]; 70% preservative, 48 hour): +/−
MBC test growth score ([1]; 70% preservative, 72 hour): 18
MBC test growth score ([1]; 70% preservative, 7 day): 9
MBC test growth score ([1]; 70% preservative, 14 day): 10
MBC test growth score ([1]; 80% preservative, 8 hour): +
MBC test growth score ([1]; 80% preservative, 24 hour): +
MBC test growth score ([1]; 80% preservative, 48 hour): +/−
MBC test growth score ([1]; 80% preservative, 7 day): 8
MBC test growth score ([1]; 80% preservative, 14 day): 6
MBC test growth score ([1]; 90% preservative, 8 hour): +
MBC test growth score ([1]; 90% preservative, 24 hour): +
MBC test growth score ([1]; 90% preservative, 48 hour): +/−
MBC test growth score ([1]; 90% preservative, 72 hour): 10
MBC test growth score ([1]; 90% preservative, 7 day): 7
MBC test growth score ([1]; 90% preservative, 14 day): 3
MBC test growth score ([1]; 100% preservative, 8 hour): +
MBC test growth score ([1]; 100% preservative, 24 hour): +
MBC test growth score ([1]; 100% preservative, 48 hour): +/−
MBC test growth score ([1]; 100% preservative, 72 hour): 7
MBC test growth score ([1]; 100% preservative, 7 day): 4
MBC test growth score ([1]; 100% preservative, 14 day): 2
total kill at % preservative (MBC) [2]: No kill @ 100%
